Source: patent US20090312286A1, “DERIVATIVES OF 4-TRIMETHYLAMMONIUM-3-AMINOBUTYRATE AND 4-TRIMETHYLPHOSPHONIUM-3-AMINOBUTYRATE AS CPT-INHIBITORS” (SIGMA-TAU INDUSTRIE FARMACEUTICHE RIUNITE S.P.A., priority 2006, published 2009)

What was measured:
[1] = system: β-hydroxybutyrate production; experiment: Inhibition of ketone bodies production in vivo in fasted rats; set-up: species or system rat; details: for ED50: Rattus norvegicus, single oral treatment, calculated on AUC of β-hydroxybutyrate from time 0 to 9 hours; for reduction of β-hydroxybutyrate levels / time to reach minimum β-hydroxybutyrate values: rats fasted 17 hours; for reduction of β-hydroxybutyrate levels: single oral dose equimolar to 10 mg/Kg of ST1326, measured at 3 and 6 hours; for time to reach minimum β-hydroxybutyrate values: single oral dose equimolar to 10 mg/Kg of ST1326, values stable for additional 3 hours
Method: The compounds were administered per os at 9:00 after 17 hours of fasting (n=5) at doses equimolar to 10 mg/kg of ST1326, which is used as reference compound.
The inhibition of CPT and consequently of β-hydroxybutyrate production operated by ST2425 and ST2452 was evaluated in vivo in rats fasted from 17 hours, at doses equimolar to 10 mg/Kg of ST1326 used as reference compound. β-hydroxybutyrate levels were measured at 3 and 6 hours from single oral treatment.
For compound ST2425, inhibition of ketone bodies production was also evaluated at the dosages of 0, 1, 3, 7, 10 mg/kg in rats fasted for 16 hours, following the reduction of β-hydroxybutyrate for 9 hours after single oral treatment.

[2] = target: T1, CPT1 in rat mitochondria (liver) (Rattus norvegicus, UniProt P32198); experiment: In vitro inhibition of CPT I, rat liver mitochondria; format: biochemical; details: for Ratio: IC50 (heart) / IC50 (liver); for IC50: CPT1, liver mitochondria of Fischer rats, 50 μM palmitoyl-CoA, 10 mM L-carnitine, 37° C., 1 minute
T1 construct: fresh mitochondrial preparations obtained from the liver or heart of Fischer rats; from tissue; host or cells: rat liver mitochondria (Fischer rats)
T1 sequence (P32198 1-773): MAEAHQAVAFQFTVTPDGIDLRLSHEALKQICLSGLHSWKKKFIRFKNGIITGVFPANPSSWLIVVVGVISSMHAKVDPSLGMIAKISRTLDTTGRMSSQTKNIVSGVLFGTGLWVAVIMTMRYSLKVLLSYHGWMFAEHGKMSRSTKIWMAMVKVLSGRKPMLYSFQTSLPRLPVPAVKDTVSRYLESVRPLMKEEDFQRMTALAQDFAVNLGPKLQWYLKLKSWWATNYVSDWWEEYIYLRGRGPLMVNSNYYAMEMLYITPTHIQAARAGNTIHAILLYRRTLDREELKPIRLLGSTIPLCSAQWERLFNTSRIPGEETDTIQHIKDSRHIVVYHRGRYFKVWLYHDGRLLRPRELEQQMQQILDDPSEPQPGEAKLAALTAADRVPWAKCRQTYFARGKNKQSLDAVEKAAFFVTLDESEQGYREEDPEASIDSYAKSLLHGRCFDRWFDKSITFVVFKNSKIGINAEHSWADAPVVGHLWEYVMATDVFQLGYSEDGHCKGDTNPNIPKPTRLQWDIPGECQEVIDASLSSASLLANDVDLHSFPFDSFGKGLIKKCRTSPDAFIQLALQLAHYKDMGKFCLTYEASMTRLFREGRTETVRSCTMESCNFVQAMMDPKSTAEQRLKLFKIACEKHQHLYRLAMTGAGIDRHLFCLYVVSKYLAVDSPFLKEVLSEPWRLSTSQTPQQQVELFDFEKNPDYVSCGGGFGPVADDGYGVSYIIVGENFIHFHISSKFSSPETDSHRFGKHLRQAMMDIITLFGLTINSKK
Method: 100 μl of a mitochondrial suspension, containing 50 μM of [^14C] palmitoyl-CoA (spec.act. 10000 dpm/mole) and 10 mM of L-carnitine, are incubated at 37° C. in the presence of stepped concentrations (0-3 mM) of product under examination.
(§1) The IC50 is then determined.

db/db mice = experiment: Antihyperglycemic activity in db/db mice; format: in vivo, mouse; details: vs control
Method: ST2425 and ST2452 were administered to db/db mice for 12 days at 30 mg/kg/day, using ST1326 at a higher dose (80 mg/kg/day) as reference compound. At the end of the treatment, serum glucose levels were evaluated after 16 hours fasting and 2 hours from last administration.

[3] = target: T2, CPT1 in rat mitochondria (heart) (Rattus norvegicus, UniProt Q63704); experiment: In vitro inhibition of CPT I, rat heart mitochondria; format: biochemical; details: CPT1, heart mitochondria of Fischer rats, 50 μM palmitoyl-CoA, 10 mM L-carnitine, 37° C., 1 minute
T2 construct: fresh mitochondrial preparations obtained from the liver or heart of Fischer rats; from tissue; host or cells: rat heart mitochondria (Fischer rats)
T2 sequence (Q63704 1-772): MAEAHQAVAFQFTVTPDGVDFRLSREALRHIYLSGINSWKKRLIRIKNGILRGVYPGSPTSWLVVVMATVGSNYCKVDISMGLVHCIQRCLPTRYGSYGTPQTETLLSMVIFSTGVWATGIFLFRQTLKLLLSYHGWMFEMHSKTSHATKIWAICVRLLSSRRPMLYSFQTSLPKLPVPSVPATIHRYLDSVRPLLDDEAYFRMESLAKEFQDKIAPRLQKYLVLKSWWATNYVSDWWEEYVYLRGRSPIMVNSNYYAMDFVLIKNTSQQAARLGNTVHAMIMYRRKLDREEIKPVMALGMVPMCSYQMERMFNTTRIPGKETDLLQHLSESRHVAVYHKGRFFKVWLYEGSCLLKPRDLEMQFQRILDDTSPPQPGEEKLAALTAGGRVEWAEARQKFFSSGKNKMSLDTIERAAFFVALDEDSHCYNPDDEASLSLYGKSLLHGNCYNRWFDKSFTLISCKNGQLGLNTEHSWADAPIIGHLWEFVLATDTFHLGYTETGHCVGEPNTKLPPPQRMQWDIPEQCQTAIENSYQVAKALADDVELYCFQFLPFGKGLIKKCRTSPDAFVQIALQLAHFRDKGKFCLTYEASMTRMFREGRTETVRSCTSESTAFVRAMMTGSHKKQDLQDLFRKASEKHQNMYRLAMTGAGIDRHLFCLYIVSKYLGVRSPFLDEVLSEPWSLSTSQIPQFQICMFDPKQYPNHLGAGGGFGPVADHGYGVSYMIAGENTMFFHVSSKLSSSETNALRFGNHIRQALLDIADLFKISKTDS
Method: The inhibition of CPT was evaluated on fresh mitochondrial preparations obtained from the liver or heart of Fischer rats, fed normally; the mitochondria taken from the liver or heart are suspended in a 75 mM sucrose buffer, EGTA 1 mM, pH 7.5. 100 μl of a mitochondrial suspension, containing 50 μM of [^14C] palmitoyl-CoA (spec.act. 10000 dpm/mole) and 10 mM of L-carnitine, are incubated at 37° C. in the presence of stepped concentrations (0-3 mM) of product under examination.
as §1

C57BL/6J mice = experiment: Effect on food intake and body weight of repeated intracerebroventricular administration; format: in vivo, mouse; details: for Mice weight / 24 hours food intake: C57BL6/J mice, Mean ± S.D.
Method: Two groups of 8 C57BL/6J mice each (ST2425 and Control) were injected icv (3 μL) with 250 pmoles (0.113 μg) of ST2425 dissolved in RPMI 1640 (vehicle), for 4 days (starting from day 0). The animals were slightly confused by isofluorane anestesia. The head was positioned in an apparatus used to reveal a “virtual bregma” without opening the skin. The injection was performed with a syringe at 3.5 mm of depth, using the following coordinates from Bregma: 1 mm on the left of the midsagittal suture and 3 mm posterior (lateral ventricle). The animals were treated at 5:00 p.m. and food intake was monitored at 8:00 a.m. of the day after. Starting from the day after the first treatment, food was removed from 8:00 a.m. to 5:00 p.m.
Statistical analysis was performed using two way repeated measures ANOVA followed by Student, Newman, Keuls test as post-hoc analysis.

Sprague Dawley rats = experiment: Effect on food intake of intranasal administration in normal rats; format: in vivo; details: intranasal 320 μg/40 μL/rat for 3 days, starting from the day after the second treatment, FIG. 3
Method: FIG. 3 reports the food intake (expressed as g/kg b.w.) in Sprague Dawley rats, treated intranasally for 3 days with ST2425 (320 μg/40 μl/rat) equally subdivided in the two nostrils. (Mean±S.D. (n=5). One way ANOVA post-hoc test SNK *p≦0.05 vs Control)
To test the activity on food consumption of the compounds of the present invention after intranasal administration, ST2425 was given to normally-fed Sprague Dawley rats (320 μg/40 μL/rat, in citrate buffer 10 mmol/L pH 5.0, equally subdivided into the two nostrils) 2 h before the dark cycle. The compound was administered for 3 days (starting from day 0) and food consumption was measured every time for the following 24 h. Five rats were considered for each group.

[4] = day 1, icv 250 pmoles for 4 days
[5] = day 2, icv 250 pmoles for 4 days
[6] = day 3, icv 250 pmoles for 4 days
[7] = day 4, icv 250 pmoles for 4 days
[8] = days 3 and 4, statistically significant
[9] = over the experiment, icv 250 pmoles for 4 days

CCCCCCCCCCCCCCNC(=O)N[C@H](CC(=O)[O-])C[N+](C)(C)C [ST1326, R-4-trimethyl ammonium-3-(tetradecylcarbamoyl)-aminobutyrate, reference compound]
ED50 ([1]; rats fasted 16 hours): 14.5 mg/kg
Ratio [2]: 135
reduction of glucose levels (db/db mice; 80 mg/kg/day for 12 days): 26%

CCCCCCOc1cccc(OCCCCNC(=O)N[C@H](CC(=O)[O-])C[P+](C)(C)C)c1 [ST2452, (R)-4-trimethylphosphonium-3-[[4-[(3-hexyloxy)phenoxy]butyl]carbamoyl]-amino-butyrate]
IC50 [3]: 57.3 µM
reduction of β-hydroxybutyrate levels [1]: higher and faster with respect to ST1326
time to reach minimum β-hydroxybutyrate values [1]: 3 h
IC50 [2]: 0.12 µM
Ratio [2]: 478
reduction of glucose levels (db/db mice; 30 mg/kg/day for 12 days): 30%

CCCCCCOc1cccc(OCCCCNC(=O)N[C@H](CC(=O)[O-])C[N+](C)(C)C)c1 [ST2425, (R)-4-trimethylammonium-3-[[4-[(3-hexyloxy)-phenoxy]butyl]carbamoyl]-amino-butyrate]
IC50 [3]: 31.6 µM
ED50 ([1]; rats fasted 16 hours): 3.7 mg/kg
effect on ketone bodies levels, dose relation ([1]; fasted rats, FIG. 2): dose-related effect
onset of action on ketone bodies levels ([1]; rats fasted 16 hours, single oral treatment 1-10 mg/kg, FIG. 2): faster onset of action
reduction of β-hydroxybutyrate levels [1]: higher and faster with respect to ST1326
time to reach minimum β-hydroxybutyrate values [1]: 3 h
IC50 [2]: 0.27 µM
Ratio [2]: 117
Mice weight (C57BL/6J mice; day 0, icv 250 pmoles for 4 days): 22.2 ± 0.91 g
24 hours food intake (C57BL/6J mice; [4]): 3.15 ± 0.61 g
Mice weight (C57BL/6J mice; [4]): 21.2 ± 0.96 g
24 hours food intake (C57BL/6J mice; [5]): 3.31 ± 0.70 g
Mice weight (C57BL/6J mice; [5]): 20.5 ± 1.14 g
change of mice weight (C57BL/6J mice; day 2, statistically significant): −5%
24 hours food intake (C57BL/6J mice; [6]): 3.35 ± 0.73 g
Mice weight (C57BL/6J mice; [6]): 20.0 ± 0.69 g
24 hours food intake (C57BL/6J mice; [7]): 3.55 ± 0.63 g
Mice weight (C57BL/6J mice; [7]): 20.1 ± 0.64 g
change of mice weight (C57BL/6J mice; [8]): −10%
reduction of food intake (C57BL/6J mice; [8]): about 30%
change of food consumption with respect to the control group (C57BL/6J mice; [9]): −25%
change of mice weight with respect to the control group (C57BL/6J mice; [9]): −7%
food consumption with respect to controls (Sprague Dawley rats): significant reduction of food consumption
reduction of glucose levels (db/db mice; 30 mg/kg/day for 12 days): 41%
